# Measured values from US9512180B2, “Compstatin analogs” (THE REGENTS OF THE UNIVERSITY OF CALIFORNIA, priority 2012, dated 2016).
# Tests used:
# [1] = RP-HPLC relative lipophilicity (retention factor k, log k); format: physicochemical
# Procedure: The effect of the hydrophobic content of compstatin family peptides on relative lipophilicity was evaluated using RP-HPLC, a widely applied indirect technique for the determination of the lipophilicity of drugs and drug candidates. The determination of log P by RP-HPLC is based on the measurement of the retention factor k between the mobile and stationary phase (Eq. 7) of the investigated compound:
# [formula] where tR is the retention time of the analyte, and to is the elution time of an unretained analyte. The logarithm of the retention factor is linearly correlated with the logarithm of the partition coefficient log P=a log k+b (8). where a and b are the slope and intercept of the linear equation.
# The determination of log P values requires calibration using structurally related compounds, and is beyond the scope of this study. Instead the log k values were used to indicate the relative lipophilicities of this compstatin peptide family.
# HPLC experiments were carried out using an Agilent 1100 HPLC with UV detection at 280 nm at 25° C. Separations were performed on a Waters (Milford, Mass.) 4.6×150 mm XTerra MS C18 column with 5 μm pore size using a mobile phase of A: 10 mM phosphate buffer pH=7.4 containing 1% TFA, and B: acetonitrile. The purity of the peptides was verified by an isocratic separation at 28% B and a flow rate of 1 mL/min. Solutions containing 0.6-0.8 mg/mL of Peptides I, III, VI, IX and the parent peptide were prepared in methanol and diluted 5-times with the eluent. All five peptides eluted as single peaks indicating a high degree of purity (FIG. 10).
# For the determination of the relative lipophilicities a solution containing each of the peptides was prepared from the stock solutions and injected in triplicate. […] A 0.5 mg/mL solution of aspartic acid was used as the unretained analyte for the determination of the column dead time, 1.439±0.003 min.
# RP-HPLC was used to measure the hydrophobicity/lipophilicity content of the compstatin family peptides. The retention of a compound in RP-HPLC depends on its hydrophobicity/lipophilicity content, and is correlated to the octanol-water partition ratio. Lipophilicity describes the partitioning of a compound between an aqueous and a lipidic/hydrophobic environment, and is an essential physicochemical parameter to determine pharmacokinetic behavior according to ADME (absorption, distribution, metabolism, excretion) characterization. Because the compstatin family peptides consist of a hydrophobic and a polar surface, their ability to bind to the hydrophobic cavity of C3, while maintaining a solvent-exposed face has been evaluated here as lipohilicity content, measured by RP-HPLC. In addition, lipohilicity is inversely proportional to aqueous solubility, and therefore can be used to estimate solubility of the peptides in their free (unbound) state.
# rC3 = rC3 (Rattus norvegicus, UniProt P01026); experiment: Experimental activity against rC3 (method not described)
# Chain of rC3 (P01026 25-1663): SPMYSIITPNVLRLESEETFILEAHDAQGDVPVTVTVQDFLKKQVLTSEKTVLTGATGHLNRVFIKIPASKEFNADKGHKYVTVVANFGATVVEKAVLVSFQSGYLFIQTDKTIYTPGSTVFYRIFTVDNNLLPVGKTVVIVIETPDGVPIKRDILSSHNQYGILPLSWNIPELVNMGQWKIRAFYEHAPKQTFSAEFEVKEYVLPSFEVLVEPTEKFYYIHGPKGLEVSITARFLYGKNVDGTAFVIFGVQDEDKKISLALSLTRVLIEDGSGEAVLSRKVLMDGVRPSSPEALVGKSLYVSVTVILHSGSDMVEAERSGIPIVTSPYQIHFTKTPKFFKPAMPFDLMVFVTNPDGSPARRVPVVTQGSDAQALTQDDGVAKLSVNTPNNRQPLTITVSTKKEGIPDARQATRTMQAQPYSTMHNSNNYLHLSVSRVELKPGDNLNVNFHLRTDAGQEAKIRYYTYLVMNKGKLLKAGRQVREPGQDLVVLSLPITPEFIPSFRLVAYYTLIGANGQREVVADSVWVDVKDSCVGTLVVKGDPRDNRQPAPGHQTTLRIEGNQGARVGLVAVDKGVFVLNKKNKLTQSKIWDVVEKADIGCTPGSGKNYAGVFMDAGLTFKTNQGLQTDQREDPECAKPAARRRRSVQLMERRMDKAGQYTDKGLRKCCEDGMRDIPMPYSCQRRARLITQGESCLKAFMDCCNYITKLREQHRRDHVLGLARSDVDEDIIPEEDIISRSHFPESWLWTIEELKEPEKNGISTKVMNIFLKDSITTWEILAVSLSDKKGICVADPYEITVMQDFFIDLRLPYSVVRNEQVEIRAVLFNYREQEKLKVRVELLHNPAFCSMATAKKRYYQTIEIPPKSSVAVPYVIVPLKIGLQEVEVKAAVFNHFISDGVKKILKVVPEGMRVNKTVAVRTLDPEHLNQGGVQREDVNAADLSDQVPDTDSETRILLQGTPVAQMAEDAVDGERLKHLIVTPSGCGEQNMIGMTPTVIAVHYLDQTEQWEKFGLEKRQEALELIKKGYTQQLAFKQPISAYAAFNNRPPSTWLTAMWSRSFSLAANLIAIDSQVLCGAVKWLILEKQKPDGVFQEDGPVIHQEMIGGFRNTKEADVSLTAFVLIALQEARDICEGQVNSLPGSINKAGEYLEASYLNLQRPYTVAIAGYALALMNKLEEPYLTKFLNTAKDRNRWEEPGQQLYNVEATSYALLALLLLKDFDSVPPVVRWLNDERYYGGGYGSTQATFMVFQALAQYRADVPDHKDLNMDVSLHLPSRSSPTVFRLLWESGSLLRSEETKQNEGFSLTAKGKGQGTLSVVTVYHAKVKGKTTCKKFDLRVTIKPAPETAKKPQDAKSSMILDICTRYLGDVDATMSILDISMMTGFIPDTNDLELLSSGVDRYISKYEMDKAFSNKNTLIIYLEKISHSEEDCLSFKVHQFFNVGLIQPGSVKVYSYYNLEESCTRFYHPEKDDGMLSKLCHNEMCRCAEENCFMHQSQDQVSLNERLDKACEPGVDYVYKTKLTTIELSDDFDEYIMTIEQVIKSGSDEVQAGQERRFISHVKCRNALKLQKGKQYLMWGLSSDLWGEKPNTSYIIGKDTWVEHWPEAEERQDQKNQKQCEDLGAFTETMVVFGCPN
# [2] = Aqueous solubility by concentration measurement (absorbance at 280 nm) of saturated peptide solutions; format: physicochemical; details: saturated peptide solutions, absorbance at 280 nm; read-out: approximate aqueous solubility
# Procedure: The relative lipophilicities of Peptides I, III, VI, IX, and Parent are inversely consistent with solubilities as determined via concentration measurement (absorbance at 280 nm) of saturated peptide solutions, with Peptides I, III, and Parent having approximate aqueous solubilities of >1 mM, Peptide VI>500 μM, and Peptide IX<500 μM.
compound,measurement,setting,value
"CC[C@H](C)[C@H](NC(C)=O)C(=O)N[C@H]1CSSC[C@@H](C(=O)N[C@H](C(N)=O)[C@@H](C)O)NC(=O)[C@H](CCCNC(=N)N)NC(=O)[C@H](Cc2c[nH]cn2)NC(=O)[C@H](C)NC(=O)CNC(=O)[C@H](Cc2c[nH]c3ccccc23)NC(=O)[C@H](CC(=O)O)NC(=O)[C@H](CCC(N)=O)NC(=O)[C@H](Cc2c[nH]c3ccccc23)NC(=O)[C@H](C(C)C)NC1=O [Peptide IX, Ac- ICV WQDWGA HRCT-NH2, reference compound]",Retention factor (k),[1],11.429
same,logk,[1],1.058
same,activity against rC3 (in words),rC3,inactive
same,solubility,[2],< 500 µM
